{"source": "patent US5620864A", "about": "“Acceptor for fucosyl transferase” (Health Research, Inc., priority 1992, dated 1997)", "key": {"[1]": {"biological_target": "T1, serum α1,3-L-fucosyltransferase (Homo sapiens, UniProt P51993)", "T1 construct": "Sera were collected from healthy females and ovarian cancer patients; from tissue; host or cells: blood serum of ovarian cancer patients and healthy females", "T1 sequence (P51993 35-359 limits assumed)": "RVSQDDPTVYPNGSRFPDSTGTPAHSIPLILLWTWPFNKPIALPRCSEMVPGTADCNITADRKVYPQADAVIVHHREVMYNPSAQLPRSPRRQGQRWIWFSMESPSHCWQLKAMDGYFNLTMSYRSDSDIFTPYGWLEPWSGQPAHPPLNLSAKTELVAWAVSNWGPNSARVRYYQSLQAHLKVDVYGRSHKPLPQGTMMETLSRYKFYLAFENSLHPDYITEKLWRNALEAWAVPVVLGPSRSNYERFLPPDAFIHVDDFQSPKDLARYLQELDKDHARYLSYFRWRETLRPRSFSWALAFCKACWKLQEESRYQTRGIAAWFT", "assay": "Assay of α1,3-fucosyltransferase with various synthetic acceptors, ovarian cancer sera as enzyme source", "type": "biochemical", "details": "acceptor 0.3 mM, 37° C. 18 h", "protocol": "(§1) Sera were collected from healthy females and ovarian cancer patients admitted to Roswell Park Cancer Institute in Buffalo, N.Y., USA. Ovarian tumor tissues were obtained during surgical procedures from patients with ovarian cancer. Both sera and tissues were stored frozen at -70° C. until use.\n(§2) An incubation mixture contained 50 mM HEPES-NaOH, pH 7.5, 5 mM MnC12, 7 mM ATP, 3 mM NaN3, the acceptor 0.3 mM (for serum enzyme) or 3.0 mM (for tumor enzyme), 0.125 μCi of GDP-[U-^14 C] Fuc (Sp. Act. 216 mCi/mmol) and enzyme in a total volume of 0.10 ml; the control incubation mixture had everything except the acceptor. At the end of incubation at 37° C. for 18 h, the mixture was diluted with 1 ml water and passed through Dowex-1-C1 column (1 ml in a Pasteur pipet). The column was washed twice with 1 ml water; the breakthrough and wash, which contained the [^14 C] fucosylated neutral acceptor, were collected together in a scintillation vial and counted for radioactivity using the scintillation coctail 3a70 (Research Products International, Mount Prospects, Ill.) and Beckman LS9000. The Dowex column was then eluted successively with 3 ml each of 0.1M and 0.2M NaCl; these eluates which contained the [^14 C] fucosylated sulfated acceptors, were counted for radioactivity as before. Corrections were made by subtracting the radioactivity in the water and NaCl eluates of the control incubation mixture from the corresponding test fractions. The duplicate runs of samples gave almost identical values, the difference being <5%.\nThe activity of serum α1,3-fucosyltransferase was measured with the specific substrate 2'-methyl LacNAc and compared with the ability of several other synthetic substrates to act as an acceptor of fucose.\nWhen the structure of the acceptor 2'-methyl LacNAc was modified by replacing the methyl group with sulfate group in C-2', 3', 6' or 6 position and tested their ability to act as the acceptor of fucose, the following novel findings emerged. […] The β-benzyl glycoside of 3' sulfo LacNAc was quite active (168.4%) but less than the parent compound."}, "[2]": {"tested_on": "α1,3-L-fucosyltransferase of the particulate fraction of ovarian tumor", "assay": "Assay of α1,3-fucosyltransferase with synthetic acceptors, ovarian tumor particulate fraction", "type": "biochemical, human", "protocol": "FIG. 2 The scheme for the preparation of the particulate and soluble fractions of human ovarian tumor.\nas §2\nThis finding is quite different from what we found with the soluble fraction, where α1,4-fucosyltransferase activity seems to be greater than α1,3-fucosyltransferase activity. […] The different nature of the above enzymes was made further clear, when sulfated derivatives of LacNAc was tested as acceptors."}, "[3]": {"tested_on": "serum α1,3-L-fucosyltransferase", "assay": "Acceptor ability in presence of the competitive substrate (3'-sulfo LacNAc vs 2'-methyl LacNAc), ovarian cancer sera", "type": "biochemical, human", "protocol": "as §2\n(§3) The superiority of 3'-sulfo LacNAc over 2'-methyl LacNAc as the substrate for measuring serum α1,3 fucosyltransferase was tested in three different ways. First, the incubation mixtures in duplicate contained 0.3 mM 3'-sulfo LacNAc and varying amounts of 2'-methyl LacNAc (0 to 7.5 mM); the incorporation of [^14 C] fucose by the serum enzyme into both substrates was measured (Table III). The incorporation of [^14 C] fucose into 3'-sulfo LacNAc decreased and into 2'-methyl LacNAc increased with the increase in the concentration of the latter. […] 25 fold less than 2' methyl LacNAc. Secondly, the incubation mixtures in duplicate contained 3.0 mM 2'-methyl LacNAc and varying amounts of 3'-sulfo LacNAc (0 to 0.75 mM); the incorporation of [^14 C] fucose by the same serum enzyme into both substrates was measured (Table III). The [^14 C] fucose incorporation into 2'-methyl LacNAc decreased and into 3'-sulfo LacNAc increased by increasing the concentration of the latter. […] Thirdly, both 2'-methyl LacNAc and 3'-sulfo LacNAc at 0.3 mM concentration were incubated separately in duplicates with six ovarian cancer sera and one normal serum; the incorporation of [^14 C] fucose into these acceptors were quantitated (Table IV). The [^14 C] fucose incorporation into 3'-sulfo LacNAc was consistently higher (4-5 fold) than that into 2'-methyl LacNAc, including the assay of the normal serum. […] These values indicate that 3'-sulfo LacNAc is a very high affinity acceptor for α1,3 fucosyltransferase. The [^14 C] fucosylated product arising from 3'-sulfo LacNAc has been tentatively identified as 3'-sulfo, 3-fucosyl LacNAc by comparing strictly its mobility on paper with the synthetic authentic compound 3'-sulfo, 3-fucosyl LacNAc (see FIG. 5)."}, "[4]": {"biological_target": "T1, serum α1,3-L-fucosyltransferase", "assay": "Detection of serum α1,3-L-fucosyltransferase in six ovarian cancer sera and one normal serum", "type": "biochemical", "details": "for percentage of the ratio between the CPM obtained for cancer serum and normal serum: acceptor 0.30 mM", "protocol": "as §1, §2, §3"}}, "data": [{"smiles": "CO[C@H]1[C@H](O[C@H]2[C@H](O)[C@@H](NC(C)=O)C(O)O[C@@H]2CO)O[C@H](CO)[C@H](O)[C@@H]1O", "note": "(some centres unmarked) [2'-methyl LacNAc]", "values": [{"measurement": "[14C] Fucose Incorporated (CPM)", "setting": "[1]", "result": 1730, "unit": "CPM"}, {"measurement": "Relative Percent", "setting": "[2]; 2'-methyl LacNAc = 100", "result": 100, "unit": "%"}, {"measurement": "[14C] Fucose Incorporated (CPM)", "setting": "[2]; acceptor 3.0 mM, 37° C. 18 h", "result": 48252, "unit": "CPM"}, {"measurement": "Incorporation of [14C] Fucose (CPM)", "setting": "[3]; 2'-Methyl LacNAc 3.0 mM + 3'-Sulfo LacNAc 0 mM", "result": 3664, "unit": "CPM"}, {"measurement": "Incorporation of [14C] Fucose (CPM)", "setting": "[3]; 2'-Methyl LacNAc 3.0 mM + 3'-Sulfo LacNAc 0.15 mM", "result": 2581, "unit": "CPM"}, {"measurement": "Incorporation of [14C] Fucose (CPM)", "setting": "[3]; 2'-Methyl LacNAc 3.0 mM + 3'-Sulfo LacNAc 0.30 mM", "result": 2191, "unit": "CPM"}, {"measurement": "Incorporation of [14C] Fucose (CPM)", "setting": "[3]; 2'-Methyl LacNAc 3.0 mM + 3'-Sulfo LacNAc 0.45 mM", "result": 1737, "unit": "CPM"}, {"measurement": "Incorporation of [14C] Fucose (CPM)", "setting": "[3]; 2'-Methyl LacNAc 3.0 mM + 3'-Sulfo LacNAc 0.65 mM", "result": 1184, "unit": "CPM"}, {"measurement": "Incorporation of [14C] Fucose (CPM)", "setting": "[3]; 2'-Methyl LacNAc 3.0 mM + 3'-Sulfo LacNAc 0.75 mM", "result": 1187, "unit": "CPM"}, {"measurement": "inhibition of the [14C] fucose incorporation into 3'-sulfo LacNAc", "setting": "[3]; 2'-methyl LacNAc 7.5 mM, 3'-sulfo LacNAc 0.3 mM", "result": 43, "unit": "%"}, {"measurement": "Km", "setting": "[3]; 2'-methyl LacNAc in presence of 0.3 mM 3'-sulfo LacNAc, serum enzyme", "result": 6.67, "unit": "mM"}, {"measurement": "Incorporation of [14C] Fucose (CPM)", "setting": "[3]; 3'-Sulfo LacNAc 0.3 mM + 2'-Methyl LacNAc 0 mM", "result": 157, "unit": "CPM"}, {"measurement": "Incorporation of [14C] Fucose (CPM)", "setting": "[3]; 3'-Sulfo LacNAc 0.3 mM + 2'-Methyl LacNAc 1.5 mM", "result": 1143, "unit": "CPM"}, {"measurement": "Incorporation of [14C] Fucose (CPM)", "setting": "[3]; 3'-Sulfo LacNAc 0.3 mM + 2'-Methyl LacNAc 3.0 mM", "result": 1614, "unit": "CPM"}, {"measurement": "Incorporation of [14C] Fucose (CPM)", "setting": "[3]; 3'-Sulfo LacNAc 0.3 mM + 2'-Methyl LacNAc 4.5 mM", "result": 1973, "unit": "CPM"}, {"measurement": "Incorporation of [14C] Fucose (CPM)", "setting": "[3]; 3'-Sulfo LacNAc 0.3 mM + 2'-Methyl LacNAc 6.0 mM", "result": 2698, "unit": "CPM"}, {"measurement": "Incorporation of [14C] Fucose (CPM)", "setting": "[3]; 3'-Sulfo LacNAc 0.3 mM + 2'-Methyl LacNAc 7.5 mM", "result": 2788, "unit": "CPM"}, {"measurement": "inhibition by 2'-methyl LacNAc of incorporation into 3'-sulfo LacNAc", "setting": "[3]; 3'-sulfo LacNAc present at 3.0 mM", "result": "no inhibition"}, {"measurement": "Incorporation of [14C] Fucose (CPM) into the Acceptor (0.30 mM)", "setting": "[4]; Normal Serum", "result": 397, "unit": "CPM"}, {"measurement": "Incorporation of [14C] Fucose (CPM) into the Acceptor (0.30 mM)", "setting": "[4]; Ovarian Cancer Serum 1", "result": 1325, "unit": "CPM"}, {"measurement": "percentage of the ratio between the CPM obtained for cancer serum and normal serum", "setting": "[4]; Ovarian Cancer Serum 1", "result": 334, "unit": "%"}, {"measurement": "Incorporation of [14C] Fucose (CPM) into the Acceptor (0.30 mM)", "setting": "[4]; Ovarian Cancer Serum 2", "result": 1724, "unit": "CPM"}, {"measurement": "percentage of the ratio between the CPM obtained for cancer serum and normal serum", "setting": "[4]; Ovarian Cancer Serum 2", "result": 434, "unit": "%"}, {"measurement": "Incorporation of [14C] Fucose (CPM) into the Acceptor (0.30 mM)", "setting": "[4]; Ovarian Cancer Serum 3", "result": 1359, "unit": "CPM"}, {"measurement": "percentage of the ratio between the CPM obtained for cancer serum and normal serum", "setting": "[4]; Ovarian Cancer Serum 3", "result": 342, "unit": "%"}, {"measurement": "Incorporation of [14C] Fucose (CPM) into the Acceptor (0.30 mM)", "setting": "[4]; Ovarian Cancer Serum 4", "result": 1347, "unit": "CPM"}, {"measurement": "percentage of the ratio between the CPM obtained for cancer serum and normal serum", "setting": "[4]; Ovarian Cancer Serum 4", "result": 339, "unit": "%"}, {"measurement": "Incorporation of [14C] Fucose (CPM) into the Acceptor (0.30 mM)", "setting": "[4]; Ovarian Cancer Serum 5", "result": 699, "unit": "CPM"}, {"measurement": "percentage of the ratio between the CPM obtained for cancer serum and normal serum", "setting": "[4]; Ovarian Cancer Serum 5", "result": 176, "unit": "%"}, {"measurement": "Incorporation of [14C] Fucose (CPM) into the Acceptor (0.30 mM)", "setting": "[4]; Ovarian Cancer Serum 6", "result": 975, "unit": "CPM"}, {"measurement": "percentage of the ratio between the CPM obtained for cancer serum and normal serum", "setting": "[4]; Ovarian Cancer Serum 6", "result": 246, "unit": "%"}, {"measurement": "α1,3 fucosyltransferase activity of the cancer sera as compared to the normal serum", "setting": "[4]; range over six ovarian cancer sera, acceptor 0.3 mM", "result": "176%-434%"}]}]}
